# In patent US10213391B2, “Pharmaceutical compositions comprising hemp and turmeric to treat pain and inflammation” (priority 2014, dated 2019):
# Experiments:
# pain = assay: 7 volunteer pain relief study; type: in vivo, human; details: for Relief: single agent: Curcumin 30 mg or Hemp CBD 20 mg, formulations contain magnesium
# Source text: All of the above formulations contain magnesium. Patients received the combination of CBD and curcumin in the following formulation comprising: (a) hemp derived terpiniods and oil; (b) turmeric as curcumin and; (c) magnesium.
# [1] = test system: Chronic constriction injury (CCI) in mice; details: p.o., twice per day for three weeks, cited from earlier work
# [2] = chronic, but not acute, treatment 5, 15 or 45 mg/kg
smiles,measurement,setting,value
"COc1cc(/C=C/C(=O)CC(=O)/C=C/c2ccc(O)c(OC)c2)ccc1O [Curcumin, curcumin]",Relief,"pain; Subject 1, (California), joint pain",Partial relief
same,Relief,"pain; Subject 2, (California), migraine",Partial relief
same,Relief,"pain; Subject 4, (Colorado), back pain",Partial relief
same,Relief,"pain; Subject 5, (California), back pain",Partial relief
same,pain relief,"pain; summary of the 7 volunteer study, patients taking the agents singly",partial pain relief
same,spinal monoamine (or metabolite) contents,"[1]; chronic treatment 5, 15 or 45 mg/kg",increasing
same,mechanical allodynia (von Frey hair),[1]; [2],alleviated
same,thermal hyperalgesia (hot plate test),[1]; [2],alleviated
